ChEMBL document CHEMBL3351732, “Potent bisimidazole-based HCV NS5A inhibitors bearing annulated tricyclic motifs” (Bioorg Med Chem Lett, 2014)

Assays:
[1] = (§1) AUC(last) in Sprague-Dawley rat at 1 mg/kg, iv; format: ADME, organism-based, Plasma; design: time 0 - last, dose 1 mg/kg, route intravenous; conditions: Sprague-Dawley, plasma
[2] = Oral bioavailability in Sprague-Dawley rat at 5 mg/kg; format: ADME, organism-based; conditions: in vivo
[3] = Half life in Sprague-Dawley rat at 1 mg/kg, iv; format: ADME, organism-based; design: dose 1 mg/kg, route intravenous; conditions: in vivo
[4] = system: Hepatitis C virus; experiment: Antiviral activity against HCV genotype 1b infected in human HuH7 cells by luciferase reporter gene assay; format: functional, cell-based, Hepacivirus hominis; conditions: Huh-7
[5] = Cmax in Sprague-Dawley rat at 5 mg/kg, po; format: ADME, organism-based; design: dose 5 mg/kg, route oral; conditions: in vivo
[6] = Volume of distribution at steady state in Sprague-Dawley rat at 1 mg/kg, iv; format: ADME, organism-based; design: dose 1 mg/kg, route intravenous; conditions: in vivo, read-out: Vdss
[7] = Tmax in Sprague-Dawley rat at 5 mg/kg, po; format: ADME, organism-based; design: dose 5 mg/kg, route oral; conditions: in vivo
[8] = system: Hepatitis C virus; experiment: Antiviral activity against HCV genotype 1a infected in human HuH7 cells by luciferase reporter gene assay; format: functional, cell-based, Hepacivirus hominis; conditions: subtype 1a, Huh-7
[9] = (§2) Clearance in Sprague-Dawley rat at 1 mg/kg, iv; format: ADME, organism-based; design: dose 1 mg/kg, route intravenous; conditions: Sprague-Dawley, in vivo
[10] = AUC(last) in Sprague-Dawley rat at 5 mg/kg, po; format: ADME, organism-based; design: dose 5 mg/kg, route oral, time 0 - last; conditions: plasma
[11] = Drug level in Sprague-Dawley rat liver at 5 mg/kg, po measured 4 hrs post dose; format: ADME, organism-based; design: dose 5 mg/kg, route oral; conditions: read-out: Drug uptake
[12] = Plasma concentration in Sprague-Dawley rat at 5 mg/kg, po measured 4 hrs post dose; format: ADME, organism-based; design: dose 5 mg/kg, route oral
[13] = system: Rattus norvegicus; experiment: as §1; format: ADME, organism-based, Plasma; design: time 0 - last, dose 1 mg/kg, route intravenous; conditions: in vivo
[14] = system: Hepatitis C virus; experiment: Antiviral activity against HCV genotype 3a infected in human HuH7 cells by luciferase reporter gene assay; format: functional, cell-based, Hepacivirus hominis; conditions: Huh-7
[15] = system: Rattus norvegicus; experiment: as §2; format: ADME, organism-based; design: dose 1 mg/kg, route intravenous; conditions: in vivo
[16] = system: Hepatitis C virus; experiment: Antiviral activity against HCV genotype 6a infected in human HuH7 cells by luciferase reporter gene assay; format: functional, cell-based, Hepacivirus hominis; conditions: Huh-7
[17] = system: Hepatitis C virus; experiment: Antiviral activity against HCV genotype 4a infected in human HuH7 cells by luciferase reporter gene assay; format: functional, cell-based, Hepacivirus hominis; conditions: Huh-7
[18] = system: Hepatitis C virus; experiment: Antiviral activity against HCV genotype 5a infected in human HuH7 cells by luciferase reporter gene assay; format: functional, cell-based, Hepacivirus hominis; conditions: Huh-7

| Compound | EC50 [4] [nM] | EC50 [8] [nM] | further results |
| --- | --- | --- | --- |
| COC(=O)N[C@H](C(=O)N1CCC[C@H]1c1ncc(-c2ccc3c(c2)Cc2ccc(-c4cnc([C@@H]5CCCN5C(=O)[C@@H](NC(=O)OC)C(C)C)[nH]4)cc2O3)[nH]1)C(C)C | 0.013 | 0.098 | AUC(0-t) [1]: 1060 ng·h/mL; bioavailability [2]: 41.1%; half-life [3]: 1.33 h; Cmax [5]: 380 ng/mL; Vd [6]: 1.32 L/kg; Tmax [7]: 3.33 h; clearance [9]: 15.8 mL/min/kg; AUC(0-t) [10]: 2090 ng·h/mL; concentration at 4 h [11]: 462 ng/mL; concentration at 4 h [12]: 371 ng/mL |
| COC(=O)N[C@H](C(=O)N1CCC[C@H]1c1ncc(-c2ccc3c(c2)Oc2ccc(-c4cnc([C@@H]5CCCN5C(=O)[C@@H](NC(=O)OC)C(C)C)[nH]4)cc2C32CC2)[nH]1)C(C)C | 0.02 | 0.065 | – |
| COC(=O)N[C@H](C(=O)N1CCC[C@H]1c1ncc(-c2ccc3c(c2)S(=O)(=O)c2cc(-c4cnc([C@@H]5CCCN5C(=O)[C@@H](NC(=O)OC)C(C)C)[nH]4)ccc2-3)[nH]1)C(C)C | 0.13 | 2 | – |
| COC(=O)N[C@H](C(=O)N1CCC[C@H]1c1ncc(-c2ccc3c(=O)c4cc(-c5cnc([C@@H]6CCCN6C(=O)[C@@H](NC(=O)OC)C(C)C)[nH]5)ccc4oc3c2)[nH]1)C(C)C | 0.028 | 0.173 | AUClast [13]: 626 ng·h/mL; bioavailability [2]: 6.7%; half-life [3]: 0.92 h; Cmax [5]: 96.5 ng/mL; Vd [6]: 3.57 L/kg; EC50 [14]: 1.4 nM; Tmax [7]: 0.5 h; CL [15]: 55 mL/min/kg; AUC(0-t) [10]: 197 ng·h/mL; concentration at 4 h [11]: 25 ng/mL; concentration at 4 h [12]: 14 ng/mL |
| COC(=O)N[C@H](C(=O)N1CCC[C@H]1c1ncc(-c2ccc3oc4cc(-c5cnc([C@@H]6CCCN6C(=O)[C@@H](NC(=O)OC)C(C)C)[nH]5)c(Cl)cc4c(=O)c3c2)[nH]1)C(C)C | 0.029 | 2.5 | – |
| COC(=O)N[C@H](C(=O)N1CCC[C@H]1c1ncc(-c2ccc(-c3ccc(-c4cnc([C@@H]5CCCN5C(=O)[C@@H](NC(=O)OC)C(C)C)[nH]4)cc3)cc2)[nH]1)C(C)C [DACLATASVIR] | 0.073 | 0.14 | EC50 [16]: 0.45 nM; EC50 [17]: 0.041 nM; EC50 [14]: 0.67 nM; EC50 [18]: 0.051 nM |
| COC(=O)N[C@H](C(=O)N1CCC[C@H]1c1ncc(-c2ccc3c(c2)Cc2cc(-c4cnc([C@@H]5CCCN5C(=O)[C@@H](NC(=O)OC)C(C)C)[nH]4)ccc2-3)[nH]1)C(C)C | 0.042 | 0.25 | EC50 [14]: 3.8 nM |
| COC(=O)N[C@H](C(=O)N1CCC[C@H]1c1ncc(-c2ccc3c(c2)CCc2ccc(-c4cnc([C@@H]5CCCN5C(=O)[C@@H](NC(=O)OC)C(C)C)[nH]4)cc2O3)[nH]1)C(C)C | 0.055 | 7.4 | – |
| COC(=O)N[C@H](C(=O)N1CCC[C@H]1c1ncc(-c2ccc3oc4cc(-c5cnc([C@@H]6CCCN6C(=O)[C@@H](NC(=O)OC)C(C)C)[nH]5)c(F)cc4c(=O)c3c2)[nH]1)C(C)C | 0.03 | 0.6 | – |
| COC(=O)N[C@H](C(=O)N1CCC[C@H]1c1ncc(-c2ccc3c(c2)Oc2ccc(-c4cnc([C@@H]5CCCN5C(=O)[C@@H](NC(=O)OC)C(C)C)[nH]4)cc2O3)[nH]1)C(C)C | 0.023 | 0.044 | AUC(0-t) [1]: 2570 ng·h/mL; bioavailability [2]: 20.1%; half-life [3]: 2.53 h; Cmax [5]: 339 ng/mL; Vd [6]: 1.18 L/kg; EC50 [14]: 0.06 nM; Tmax [7]: 1.33 h; clearance [9]: 11.2 mL/min/kg; AUC(0-t) [10]: 1470 ng·h/mL; concentration at 4 h [11]: 973 ng/mL; concentration at 4 h [12]: 199 ng/mL |
| COC(=O)N[C@H](C(=O)N1CCC[C@H]1c1ncc(-c2ccc3oc4cc(-c5cnc([C@@H]6CCCN6C(=O)[C@@H](NC(=O)OC)C(C)C)[nH]5)c(C)cc4c(=O)c3c2)[nH]1)C(C)C | 0.055 | 3.4 | – |
| COC(=O)N[C@H](C(=O)N1CCC[C@H]1c1ncc(-c2ccc3c(c2)CCc2cc(-c4cnc([C@@H]5CCCN5C(=O)[C@@H](NC(=O)OC)C(C)C)[nH]4)ccc2O3)[nH]1)C(C)C | 0.069 | 4.8 | – |
| COC(=O)N[C@H](C(=O)N1CCC[C@H]1c1ncc(-c2ccc3c(c2)C(=O)c2cc(-c4cnc([C@@H]5CCCN5C(=O)[C@@H](NC(=O)OC)C(C)C)[nH]4)ccc2-3)[nH]1)C(C)C | 0.045 | 0.45 | – |
| COC(=O)N[C@H](C(=O)N1CCC[C@H]1c1ncc(-c2ccc3c(c2)Cc2cc(-c4cnc([C@@H]5CCCN5C(=O)[C@@H](NC(=O)OC)C(C)C)[nH]4)ccc2O3)[nH]1)C(C)C | > 3.7 | > 100 | – |
| COC(=O)N[C@H](C(=O)N1CCC[C@H]1c1ncc(-c2ccc3c4ccc(-c5cnc([C@@H]6CCCN6C(=O)[C@@H](NC(=O)OC)C(C)C)[nH]5)cc4n(C)c3c2)[nH]1)C(C)C | 0.17 | 7.7 | – |
| COC(=O)N[C@H](C(=O)N1CCC[C@H]1c1ncc(-c2ccc3c(c2)Oc2ccc(-c4cnc([C@@H]5CCCN5C(=O)[C@@H](NC(=O)OC)C(C)C)[nH]4)cc2C(=O)N3)[nH]1)C(C)C | > 3.7 | > 100 | – |
| COC(=O)N[C@H](C(=O)N1CCC[C@H]1c1ncc(-c2ccc3c(c2)c(=O)c2ccc(-c4cnc([C@@H]5CCCN5C(=O)[C@@H](NC(=O)OC)C(C)C)[nH]4)cc2n3C)[nH]1)C(C)C | 0.028 | 11.1 | – |

Continued, in another order:

| EC50 [4] [nM] | EC50 [8] [nM] | Compound | further results |
| --- | --- | --- | --- |
| 0.037 | 1.14 | COC(=O)N[C@H](C(=O)N1CCC[C@H]1c1ncc(-c2ccc3c(c2)C(C)(C)c2cc(-c4cnc([C@@H]5CCCN5C(=O)[C@@H](NC(=O)OC)C(C)C)[nH]4)ccc2-3)[nH]1)C(C)C | – |
| 0.037 | 0.088 | COC(=O)N[C@H](C(=O)N1CCC[C@H]1c1ncc(-c2ccc3nc4cc(-c5cnc([C@@H]6CCCN6C(=O)[C@@H](NC(=O)OC)C(C)C)[nH]5)ccc4nc3c2)[nH]1)C(C)C | – |
| 0.041 | 0.4 | COC(=O)N[C@H](C(=O)N1CCC[C@H]1c1ncc(-c2ccc3c(c2)oc2cc(-c4cnc([C@@H]5CCCN5C(=O)[C@@H](NC(=O)OC)C(C)C)[nH]4)ccc23)[nH]1)C(C)C | EC50 [14]: 1.3 nM |
| 0.033 | 1.8 | COC(=O)N[C@H](C(=O)N1CCC[C@H]1c1ncc(-c2ccc3c(c2)oc2ccc(-c4cnc([C@@H]5CCCN5C(=O)[C@@H](NC(=O)OC)C(C)C)[nH]4)cc23)[nH]1)C(C)C | – |
| 0.18 | 16.5 | COC(=O)N[C@H](C(=O)N1CCC[C@H]1c1ncc(-c2ccc3c(c2)[nH]c2cc(-c4cnc([C@@H]5CCCN5C(=O)[C@@H](NC(=O)OC)C(C)C)[nH]4)ccc23)[nH]1)C(C)C | – |
| 0.17 | 9 | COC(=O)N[C@H](C(=O)N1CCC[C@H]1c1ncc(-c2ccc3oc4ccc(-c5cnc([C@@H]6CCCN6C(=O)[C@@H](NC(=O)OC)C(C)C)[nH]5)cc4c3c2)[nH]1)C(C)C | – |
| 0.55 | 3 | COC(=O)N[C@H](C(=O)N1CCC[C@H]1c1ncc(-c2ccc3c(c2)-c2ccc(-c4cnc([C@@H]5CCCN5C(=O)[C@@H](NC(=O)OC)C(C)C)[nH]4)cc2-3)[nH]1)C(C)C | – |
